Measurements: publication PMC7002685, “Inhibition of vascular calcification by inositol phosphates derivatized with ethylene glycol oligomers” (Nature Communications, 2020)
Where “and” joins values, the source holds several entries; their conditions need not be identical. Equal values may be shown once.

Columns and labels:
[1] = Plasma calcium after s.c. administration in healthy rats; format: in vivo, rat; conditions: 50 mg/kg s.c., acute or sub-chronic (7 days), at tmax of 30 min
[2] = VSMC viability (MTS), compounds only; format: cell-based, human; conditions: human, compound only, read-out: VSMC viability (MTS), % of medium control
[3] = target: T1, Histamine H1 (Homo sapiens, UniProt P35367); assay: Off-target 239610; format: binding
T1 construct: purchased Eurofins Panlabs Discovery Services Taiwan, Ltd
T1 sequence (P35367 whole entry): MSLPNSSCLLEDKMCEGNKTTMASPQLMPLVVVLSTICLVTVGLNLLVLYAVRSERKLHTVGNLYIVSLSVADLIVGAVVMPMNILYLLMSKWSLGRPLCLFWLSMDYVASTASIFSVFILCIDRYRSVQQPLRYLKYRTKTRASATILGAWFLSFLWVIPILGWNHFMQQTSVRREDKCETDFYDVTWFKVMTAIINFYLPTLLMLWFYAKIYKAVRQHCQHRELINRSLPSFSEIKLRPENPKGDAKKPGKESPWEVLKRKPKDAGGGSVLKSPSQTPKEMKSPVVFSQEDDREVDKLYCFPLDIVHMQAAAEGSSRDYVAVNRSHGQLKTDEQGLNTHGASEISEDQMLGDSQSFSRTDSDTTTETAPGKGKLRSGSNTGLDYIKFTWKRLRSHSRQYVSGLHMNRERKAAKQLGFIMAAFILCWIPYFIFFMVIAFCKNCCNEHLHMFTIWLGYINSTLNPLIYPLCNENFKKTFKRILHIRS
Protocol: (§1) The potential off-target activity of 10 µM (OEG2)2-IP4 was assessed against a panel of 87 enzymes, receptors, or ion channels that are used in standard safety pharmacology screens.
(§2) 3.2. Off-target screening assay
(§3) The experiments were conducted by a contract research organization (Eurofins Panlabs Discovery Services Taiwan, Ltd.) and details on the respective assays can be retrieved via the catalog number provided in Supplementary Table 11 from the company’s webpage
(§4) (https://www.eurofinsdiscoveryservices.com/). […]
(§5) At sacrifice the left tibia of animals of the rat model with dietary adenine/high-phosphate-induced uremia and VC was collected, fixed with 70% v/v EtOH and embedded in methyl methacrylate. The trabecular bone compartment is known to be the most metabolic active i.e. actively re-structured bone compartment in CKD. Therefore, histomorphometric and micro-computed tomography (µCT) analysis of bone was performed on the trabecular compartment. Tibial sections were Goldner-stained for histomorphometric analysis of the proximal metaphysis using the AxioVision Release 4.5 software, as […]
(§6) described previously5. […]

[4] = test system: TNFα release from THP-1-derived macrophages; assay: TNFα in macrophage supernatants after CPP2 and compounds; format: cell-based, human; conditions: for TNFα concentration in macrophage supernatants: 24 h, unit not given
Protocol: Macrophage accumulation and inflammation coincide with the initial phase of calcification. To this end, VSMCs and THP-1-derived macrophages were exposed to CPP2-supplemented medium. CPP2 prepared from human serum as described previously[61] (Supplementary Figs. 6 and 7), induced a pronounced VSMC monolayer calcification after 48 h, which was decreased by (OEG2)2-IP4 in a dose-dependent fashion, and the effect became significant at 10 µM (Fig. 3e). […] Both H2O2 (proxy for oxidative stress) and tumor necrosis factor-alpha (TNF-α) (proxy for inflammatory response) levels were assayed in the VSMC culture supernatants subsequent to CPP2 treatment with and without compounds[30]. However, no increase in H2O2 nor TNF-α compared to control could be detected in either assay. For the CPP-induced VSMC calcification assay (Fig. 3e) a roughly 10-fold higher concentration of (OEG2)2-IP4 was necessary to achieve similar activity as in the CaP-induced VSMC calcification assay (Fig. 3b). […] In the CaP assay, low inhibitor concentration may be sufficient to inhibit crystal nucleation, whereas for the CPP assay higher inhibitor concentrations may be needed to achieve sufficient particle stabilization by chemisorption of inhibitor onto CPPs. Similar results have been reported for hydrogen sulfide in the context of VC[62],[64]. […] An increase in the TNFα levels in the cell culture supernatants was not observed for (OEG2)2-IP4 with (Fig. 3h) and without (Supplementary Fig. 10) combined CPP2 treatment.
THP-1 cells were plated at a density of 200,000 cells/well in a 24-well plate, differentiated as stated above, and subsequently treated with or without CPP2 (50 μg Ca/mL) in complete medium with or without test compounds (3, 10, 30, 100 μM) for 24 h at 37 °C, 5% CO2.
Human TNF-α was assayed in cell culture supernatants using commercial multiplex immunoassay kits (U-Plex of TNF-α (custom-made multiplex plate) and Human TNF- Kit (K151QWD-1), both from MesoScaleDiscovery, Rockville, MD, USA), and corrected for total protein content using the Micro BCA^TM Protein Assay Kit.

[5] = target: T2, Cholinesterase, Acetyl, ACES (Homo sapiens, UniProt P22303); assay: Off-target 104010; format: biochemical
T2 construct: purchased Eurofins Panlabs Discovery Services Taiwan, Ltd
T2 sequence (P22303 32-614): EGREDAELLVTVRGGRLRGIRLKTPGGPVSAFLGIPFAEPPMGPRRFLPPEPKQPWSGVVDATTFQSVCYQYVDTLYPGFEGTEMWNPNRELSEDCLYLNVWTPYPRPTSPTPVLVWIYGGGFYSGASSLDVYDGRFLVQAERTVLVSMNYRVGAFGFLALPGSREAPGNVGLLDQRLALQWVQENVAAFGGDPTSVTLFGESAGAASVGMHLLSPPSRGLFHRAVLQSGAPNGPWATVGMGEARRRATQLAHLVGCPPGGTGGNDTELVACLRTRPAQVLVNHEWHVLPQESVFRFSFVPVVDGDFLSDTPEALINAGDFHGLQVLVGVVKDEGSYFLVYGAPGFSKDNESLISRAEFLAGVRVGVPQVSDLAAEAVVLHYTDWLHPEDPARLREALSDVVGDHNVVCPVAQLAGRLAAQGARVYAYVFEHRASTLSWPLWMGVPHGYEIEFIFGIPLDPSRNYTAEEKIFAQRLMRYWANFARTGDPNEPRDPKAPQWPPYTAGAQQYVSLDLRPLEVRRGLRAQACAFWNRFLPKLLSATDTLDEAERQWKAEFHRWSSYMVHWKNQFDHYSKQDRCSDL
Protocol: as §1, §2
(§7) The experiments were conducted by a contract research organization (Eurofins Panlabs Discovery
(§8) Services Taiwan, Ltd.) and details on the respective assays can be retrieved via the catalog number
(§9) provided in Supplementary Table 11 from the company’s webpage
as §4

[6] = target: T3, Adenosine A2A (Homo sapiens, UniProt P29274); assay: Off-target 200610; format: binding
T3 construct: purchased Eurofins Panlabs Discovery Services Taiwan, Ltd
T3 sequence (P29274 whole entry): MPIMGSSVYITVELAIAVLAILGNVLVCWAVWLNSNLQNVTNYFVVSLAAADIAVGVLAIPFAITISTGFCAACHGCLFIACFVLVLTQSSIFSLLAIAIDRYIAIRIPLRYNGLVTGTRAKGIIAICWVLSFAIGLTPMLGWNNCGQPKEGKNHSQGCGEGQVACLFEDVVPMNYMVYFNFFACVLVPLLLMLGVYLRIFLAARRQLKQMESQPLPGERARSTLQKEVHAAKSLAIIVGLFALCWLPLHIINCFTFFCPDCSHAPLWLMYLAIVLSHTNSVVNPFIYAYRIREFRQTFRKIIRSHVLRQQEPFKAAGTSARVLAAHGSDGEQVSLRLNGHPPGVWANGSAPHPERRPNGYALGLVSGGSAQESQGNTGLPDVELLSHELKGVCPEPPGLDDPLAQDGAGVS
Protocol: as §1, §2, §3, §4, §5, §6

[7] = target: T4, Estrogen ERα (Homo sapiens, UniProt P03372); assay: Off-target 226010; format: binding
T4 construct: purchased Eurofins Panlabs Discovery Services Taiwan, Ltd
T4 sequence (P03372 whole entry): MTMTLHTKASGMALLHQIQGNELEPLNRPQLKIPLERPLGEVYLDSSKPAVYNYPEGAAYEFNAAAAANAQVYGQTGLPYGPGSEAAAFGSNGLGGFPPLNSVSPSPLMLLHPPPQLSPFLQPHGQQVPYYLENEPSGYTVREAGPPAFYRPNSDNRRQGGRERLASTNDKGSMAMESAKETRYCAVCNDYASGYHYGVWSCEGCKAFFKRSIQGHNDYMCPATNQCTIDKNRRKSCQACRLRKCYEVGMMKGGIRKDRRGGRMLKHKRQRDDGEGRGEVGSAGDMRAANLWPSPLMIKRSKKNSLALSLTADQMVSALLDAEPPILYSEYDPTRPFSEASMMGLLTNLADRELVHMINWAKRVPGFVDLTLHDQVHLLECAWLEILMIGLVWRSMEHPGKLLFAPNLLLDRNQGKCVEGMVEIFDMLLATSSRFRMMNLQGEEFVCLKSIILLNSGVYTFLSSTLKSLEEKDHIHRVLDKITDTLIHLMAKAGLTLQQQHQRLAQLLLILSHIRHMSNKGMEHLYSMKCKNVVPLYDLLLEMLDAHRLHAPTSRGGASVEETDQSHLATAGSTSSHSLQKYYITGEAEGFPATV
Protocol: as §1, §2, §3, §4, §5, §6

[8] = target: T5, Muscarinic M1 (Homo sapiens, UniProt P11229); assay: Off-target 252610; format: binding
T5 construct: purchased Eurofins Panlabs Discovery Services Taiwan, Ltd
T5 sequence (P11229 whole entry): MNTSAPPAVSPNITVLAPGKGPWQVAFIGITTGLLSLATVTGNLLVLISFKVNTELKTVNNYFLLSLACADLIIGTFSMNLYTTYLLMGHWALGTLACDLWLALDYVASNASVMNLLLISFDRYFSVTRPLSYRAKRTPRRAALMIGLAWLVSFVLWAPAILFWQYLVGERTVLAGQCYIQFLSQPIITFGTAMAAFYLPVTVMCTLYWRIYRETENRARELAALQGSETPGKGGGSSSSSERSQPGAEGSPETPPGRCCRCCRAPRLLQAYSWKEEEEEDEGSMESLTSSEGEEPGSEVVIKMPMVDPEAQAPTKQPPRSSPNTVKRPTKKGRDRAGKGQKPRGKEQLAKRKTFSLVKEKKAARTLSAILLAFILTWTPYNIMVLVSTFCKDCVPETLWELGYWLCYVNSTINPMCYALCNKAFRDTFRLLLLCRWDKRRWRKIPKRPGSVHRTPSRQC
Protocol: as §1, §2, §3, §4, §5, §6

[9] = PK s.c. in rats with vitamin D and warfarin-induced VC; format: in vivo; conditions: Sprague-Dawley, rat, plasma, sc, 50 mg/kg, 50 mg/kg s.c.
[10] = target: T6, Serotonin (5-Hydroxytryptamine) 5-HT1B (Homo sapiens, UniProt P28222); assay: Off-target 271230; format: binding
T6 construct: purchased Eurofins Panlabs Discovery Services Taiwan, Ltd
T6 sequence (P28222 whole entry): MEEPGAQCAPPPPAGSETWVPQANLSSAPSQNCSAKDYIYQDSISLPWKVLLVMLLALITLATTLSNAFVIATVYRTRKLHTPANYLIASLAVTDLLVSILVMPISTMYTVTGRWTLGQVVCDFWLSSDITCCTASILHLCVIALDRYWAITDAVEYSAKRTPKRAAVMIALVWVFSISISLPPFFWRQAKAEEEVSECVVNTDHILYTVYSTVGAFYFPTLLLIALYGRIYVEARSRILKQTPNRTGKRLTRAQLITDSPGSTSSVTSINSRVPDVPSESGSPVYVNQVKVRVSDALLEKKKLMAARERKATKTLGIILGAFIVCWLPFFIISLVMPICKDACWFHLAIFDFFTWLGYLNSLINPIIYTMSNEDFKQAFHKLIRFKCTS
Protocol: as §1, §2, §3, §4, §5, §6

[11] = test system: Calcium Channel L-Type, Dihydropyridine; assay: Off-target 214600; format: binding, Rat; conditions: 10 µM
Protocol: as §1, §2, §7, §8, §9, §4

[12] = target: T7, Dopamine D1 (Homo sapiens, UniProt P21728); assay: Off-target 219500 (D1); format: binding
T7 construct: purchased Eurofins Panlabs Discovery Services Taiwan, Ltd
T7 sequence (P21728 whole entry): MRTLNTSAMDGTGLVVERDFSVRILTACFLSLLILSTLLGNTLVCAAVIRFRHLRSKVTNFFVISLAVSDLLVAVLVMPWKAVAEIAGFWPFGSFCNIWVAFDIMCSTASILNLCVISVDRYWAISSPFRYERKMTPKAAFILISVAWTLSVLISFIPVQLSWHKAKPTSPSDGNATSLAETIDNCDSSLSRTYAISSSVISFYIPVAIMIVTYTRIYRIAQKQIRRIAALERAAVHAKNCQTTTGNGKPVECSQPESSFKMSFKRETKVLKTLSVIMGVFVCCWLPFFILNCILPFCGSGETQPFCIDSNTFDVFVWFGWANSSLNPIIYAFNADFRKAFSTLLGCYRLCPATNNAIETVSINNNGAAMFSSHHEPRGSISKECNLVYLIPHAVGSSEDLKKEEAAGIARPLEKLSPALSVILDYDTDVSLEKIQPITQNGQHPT
Protocol: as §1, §2, §7, §8, §9, §4

[13] = target: T8, Cholecystokinin CCK1 (CCKA) (Homo sapiens, UniProt P32238); assay: Off-target 218030; format: binding
T8 construct: purchased Eurofins Panlabs Discovery Services Taiwan, Ltd
T8 sequence (P32238 whole entry): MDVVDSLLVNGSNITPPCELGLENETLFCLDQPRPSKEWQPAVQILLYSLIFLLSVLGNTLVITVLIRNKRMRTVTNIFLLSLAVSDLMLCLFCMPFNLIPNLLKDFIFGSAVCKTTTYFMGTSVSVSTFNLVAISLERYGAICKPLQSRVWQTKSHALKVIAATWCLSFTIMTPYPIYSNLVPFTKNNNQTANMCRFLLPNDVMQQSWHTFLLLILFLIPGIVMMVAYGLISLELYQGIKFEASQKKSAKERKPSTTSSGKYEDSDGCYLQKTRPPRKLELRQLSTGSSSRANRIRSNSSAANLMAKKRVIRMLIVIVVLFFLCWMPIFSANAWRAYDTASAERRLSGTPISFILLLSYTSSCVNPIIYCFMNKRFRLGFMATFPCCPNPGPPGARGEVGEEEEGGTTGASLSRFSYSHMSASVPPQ
Protocol: as §1, §2, §3, §4, §5, §6

[14] = Plasma calcium after s.c. administration in healthy rats; format: in vivo, rat; conditions: individual rats
Protocol: One potential side effect of inositol phosphate-based drugs is toxicity due to chelation of ionized serum calcium. […] At 100 µM (OEG2)2-IP4, 96 ± 2% of control serum-ionized calcium was measured.
To study PK in healthy animals, male Sprague-Dawley rats (Harlan, Correzzana, Italy) were housed up to three per cage with free access to water and standard chow (pellets 12 mm, global diet 2018 certificate, Mucedola, Srl, Settimo Milanese, Italy), and submitted to a 12-h light/dark cycle. Animals were administered i.v. 10 mg/kg of (OEG2)2-IP4 in saline solution i.v. (30 s bolus, 5 mL/kg) and s.c. (5 mL/kg), respectively, in three animals per route and treatment. […] Plasma calcium concentration was determined in pre-dose samples and in t = 30 min samples of both acute and chronic treatments using the calcium colorimetric assay. Blood samples of 100 µL were drawn at several time points from the caudal vein, centrifuged at (3000 × g, 4 °C, 10 min) and stored at −80 °C until analysis by liquid chromatography–tandem mass spectrometry (LC-MS/MS).

Which “lowering of serum calcium” value [1] does the source give for COCCOCCO[C@@H]1[C@@H](OP(=O)(O)O)[C@H](OCCOCCOC)[C@@H](OP(=O)(O)O)[C@@H](OP(=O)(O)O)[C@H]1OP(=O)(O)O [(OEG2)2-IP4, 4,6-Di-O-(methoxy-diethyleneglycol)-myo-inositol-1,2,3,5-tetrakis(phosphate)] here?
Its value is “No significant lowering of serum calcium”.

What about the viability at 1 µM ([2]; 1 µM) of the same compound?
Its viability at 1 µM is 108%.

And the viability at 10 µM ([2]; 10 µM)?
Its viability at 10 µM is 106%.

What about the inhibition at 10 µM [3] of the same compound?
The inhibition at 10 µM was 4%.

What about the “TNFα concentration in macrophage supernatants” value (from here on “TNFα concentration”) ([4]; 3 µM + CPP2 50 µg Ca/mL, replicates Fig. 3h) of the same compound?
Its value is 169.13 and 90.77 and 60.49.

And the “TNFα concentration” value ([4]; 10 µM + CPP2 50 µg Ca/mL)?
The value was 111.79 and 105.92 and 63.72.

And the “TNFα concentration” value ([4]; 30 µM + CPP2 50 µg Ca/mL)?
Its value is 131.34 and 98.11 and 72.68.

And the “increase in TNFα levels in supernatants” value ([4]; with combined CPP2 treatment)?
The value was “not observed”.

What about the inhibition at 10 µM [5] of the same compound?
Its inhibition at 10 µM is 5%.

And the inhibition at 10 µM [6]?
The inhibition at 10 µM was 5%.

And the inhibition at 10 µM [7]?
Its inhibition at 10 µM is -1%.

What about the inhibition at 10 µM [8] of the same compound?
Its inhibition at 10 µM is -6%.

What about the AUC(0-inf) ([9]; Healthy) of the same compound?
The AUC(0-inf) was 101 µM·h.

What about the CL/F ([9]; Healthy) of the same compound?
Its CL/F is 11 ± 1 mL/min/kg.

And the Cmax ([9]; Healthy)?
Its Cmax is 49 ± 7 µM.

And the half-life ([9]; Healthy (before induction of calcification))?
Its half-life is 235 ± 16 min.

What about the AUC(0-t) ([9]; Healthy, read-out: AUC0-1440 (converted)) of the same compound?
The AUC(0-t) was 101 µM·h.

And the MRT last ([9]; Healthy, read-out: MRT0-1440 (converted))?
The MRT last was 2.27 h.

What about the inhibition at 10 µM [10] of the same compound?
The inhibition at 10 µM was -4%.

What about the “% Inhibition” value [11] of the same compound?
The value was 1%.

What about the inhibition at 10 µM [12] of the same compound?
Its inhibition at 10 µM is -1%.

And the inhibition at 10 µM [13]?
Its inhibition at 10 µM is 6%.

What about the “plasma calcium (Figure 4k)” value ([14]; Acute, 30 min postdose) of the same compound?
The value was 2.45 and 2.725 and 1.925 and 1.85.

What about the “plasma calcium (Figure 4k)” value ([14]; Acute, Predose) of the same compound?
Its value is 2.8 and 2.45 and 2.3 and 1.975.

And the “plasma calcium (Figure 4k)” value ([14]; Sub-chronic, 30 min postdose)?
Its value is 2.175 and 2.2 and 2.05 and 1.925.

What about the “plasma calcium (Figure 4k)” value ([14]; Sub-chronic, Predose) of the same compound?
Its value is 2.275 and 2.3 and 2.55 and 1.925.
